# Measured values taken from US8470964B2, “Peptides derived from NCAM (FGLs)” (Enkam Pharmaceuticals A/S, priority 2007, dated 2013).
# Several values for one entry are separate records, joined by “and”; a condition that tells them apart may be missing. Identical values can stand only once. Entries after “also recorded” stand apart in the source; their conditions may differ. Where no end group is shown, it is not given here.
# Key:
# intact adult rats = assay: Social Recognition Test (SRT), short-term social memory, subcutaneous administration; assay type: in vivo, rat
# Method: (§1) FIG. 3. Effects of a single administration of vehicle or of FGLs on short-term social memory as evaluated in the Social Recognition Test (SRT). FGLs (8.0 mg/kg) or vehicle (sterile water, 4.0 ml/kg) was administered s.c. and the rats were tested twice with the initial trial of SRT performed 1 h and 73 h after administration. The juvenile rat was presented twice with an inter-trial interval of 2 hours. In each experimental group data were obtained from 9 to 11 rats. Results are shown as Mean and SEM of recognition ratio (RR). […] Comparisons of RR values to a hypothetical value 0.50 were carried using one-sample t-test. **P<0.01.
# as §1, with “4.” for “3.”, “(1.0, 2.0, 4.0 and 8.0” for “(8.0”, “24” for “73”
# FIG. 5. Effects of subcutaneous administration of FGLs, FGLL and VEB1 (2 administrations at the stated doses) on short-term social memory as evaluated in the Social Recognition Test (SRT). Results are shown as Mean and SEM of recognition ratio (RR). […] Comparisons of RR values to a hypothetical value 0.50 were carried using one-sample t-test.
# The activity of FGLs, administered subcutaneously, in enhancing social memory in intact adult rats was examined in three studies. In both studies the test system was the Social Recognition Test (SRT), which is a reliable test for the evaluation of compounds active on short-term memory (Dantzer et al., 1987). In our studies we used a protocol of SRT were a juvenile rat was presented to the test rat twice, with an inter-trial interval (ITI) of 2 hours between the two tests. […] In the first study the rats received a single subcutaneous dose (8.0 mg/kg) of FGLs and were tested 1 hour and 73 hours after administration.
# In the second study the rats received a single subcutaneous dose of 1.0, 2.0, 4.0 or 8.0 mg/kg of FGLs and were tested 1 hour and 24 hours after administration.
# In the third study the dose response effects (0.25, 0.80, 2.50 and 8.0 mg/kg) of subcutaneous administration of FGLs were tested. In parallel were also tested FGLL and VEB1, another truncated form of FGLL. The peptides were administered twice, 24 and 5 hours before the first SRT, and the rats were tested 5 hour and 77 hours after the last administration
# [1] = system: rat model of (25-35) β-amyloid induced neurotoxicity; assay: (25-35) β-amyloid induced neurotoxicity, subcutaneous administration: SRT and neuropathology; assay type: in vivo
# Method: FIG. 8. The effect of FGLs (administered subcutaneously at the stated doses), or vehicle on the development of cognitive impairment (deficit in short-term social memory) and neurodegeneration after (25-35) β-amyloid (A-β) fragment neurointoxication. Comparisons of RR values to a hypothetical value 0.50 were carried using one-sample t-test. Intergroup comparisons between A-β groups were carried out using One Way ANOVA and Newman-Keuls post-hoc test and comparison between A-β vehicle and sham-operated animals by un-paired t-test.
# In the rat model of (25-35) β-amyloid induced neurotoxicity (Delobette et al., 1997; Maurice et al., 1996), (25-35) aggregated β-amyloid neurotoxin is injected intracerebroventricularly leading to progressive deterioration of short-term memory (clearly detectable using the Social Recognition Test (SRT) with a 30-minute inter-trial interval (ITI) (Kogan et al., 2000), and to neurodegeneration in cortex and hippocampus characterized by increases in amyloid burden, tau phosphorylation and micro- and macro-glia activation, as well as neuronal loss (Klementiev et al., 2007).
# In this study, 3.2, 0.8, 0.2 mg/kg of FGLs or sterile PBS were administered daily by subcutaneous injection. Administration was started 7 days after i.c.v. administration of an aggregated form of the (25-35) β-amyloid peptide fragment and continued until day 28 when the rats were terminated.
# The social memory performance was estimated, using the SRT 21-22 days after i.c.v. administration of the β-amyloid fragment.
# A significant neuroprotective effect of FGLs was detected in both areas. The minimum effective dose of FGLs for neuroprotection was 0.8 mg/kg, in hippocampus and 0.2 mg/kg in cingulate cortex.
# adult male Wistar rats = assay: Morris Water Maze spatial learning; assay type: in vivo, rat; details: 2.5 mg/kg s.c. as a single dose 5, 3 and 1 day prior to training; versus vehicle
# Method: FIG. 6. Effects of FGLs on spatial learning in the Morris Water Maze. Rats received FGLs or vehicle subcutaneously as a single dose of 2.5 mg/kg 5, 3 and 1 day prior to first test (trials 1-4 in above graph). The second test (trials 5-8 in above graph) took place the day after the first test. The results were analysed using analysis of variance (ANOVA) and Student's t-test. Data are mean escape latency(s) (±SEM) to find the platform over the 2 training days (t1-t4). *p<0.05, when compared with the Vehicle/Control group at the same time point.
# The aim of this study was to investigate whether the subcutaneous administration of FGLs modulates spatial learning in adult male Wistar rats, using the Morris Water Maze as test system.
# In the MWM test, rats are evaluated in the task to learn and remember the location of an escape platform hidden just under the water surface. In this study the test set-up was optimised for measuring learning. Rats received FGLs 2.5 mg/kg or vehicle subcutaneously as a single dose 5, 3 and 1 day prior the start of the training in the MWM.
# [2] = s.c., administered twice, 77 hours after the last administration
# [3] = daily s.c. from day 7, neuropathology at day 28
substance,measurement,setting,value
"FGLs: two identical 11 amino acid peptides (VAENQQGKSKA), forming a dimer through a linker molecule (iminodiacetic acid); peptide amide (VAENQQGKSKA-NH2; not fully specified; also: dimer of two identical peptides through iminodiacetic acid linker, attachment site not given here)",duration of mnemotropic effects after administration,"intact adult rats; s.c. administration, short-term social memory",at least 72 hours
same,minimum effective dose in SRT,"intact adult rats; s.c., administered twice (24 and 5 hours before first SRT), 5 hours post administration, intact rats",0.80 mg/kg and 0.8 mg/kg
same,dose with significant social memory enhancing effect in SRT,intact adult rats; [2],2.50 mg/kg
same,social memory enhancing effect in SRT,intact adult rats; [2],Significant memory enhancing effects
same,memory enhancing effect in SRT (recognition ratio),"intact adult rats; single s.c. dose 8.0 mg/kg, tested 1 hour after administration, inter-trial interval 2 hours",significant memory enhancing effect
same,memory enhancing effect in SRT (recognition ratio),"intact adult rats; single s.c. dose 8.0 mg/kg, tested 73 hours after administration, inter-trial interval 2 hours",tendency to significance (p=0.06)
same,memory enhancing effect in SRT (recognition ratio),"intact adult rats; single s.c. dose 2.0, 4.0 and 8.0 mg/kg, 1 hour post administration",significant memory enhancing effect
same,memory enhancing effect in SRT (recognition ratio),"intact adult rats; single s.c. dose 4.0 and 8.0 mg/kg, 24 hours after administration",significant memory enhancing effect
same,short-term memory deficit in SRT compared to placebo-treated rats,"[1]; 0.8 mg/kg s.c. daily, SRT 21-22 days after i.c.v. β-amyloid",statistically significant reduction in the short-term memory deficit
same,PRESENCE OF A SIGNIFICANT PEPTIDE EFFECT: SRT short-term social recognition memory,"[1]; daily s.c. 0.2, 0.8, 3.2 mg/kg from day 7, SRT 21-22 days after i.c.v. β-amyloid",YES (p < 0.01)^1
same,EFFECTIVE DOSE OR DOSE RANGE: SRT short-term social recognition memory,"[1]; daily s.c. from day 7, SRT 21-22 days after i.c.v. β-amyloid",0.8 mg/kg
same,EFFECTIVE DOSE OR DOSE RANGE: Density Intact neurons Cingulate cortex,[1]; [3],0.8 mg/kg
same,EFFECTIVE DOSE OR DOSE RANGE: Density Intact neurons Hippocampus (CA3),[1]; [3],0.8 mg/kg
same,EFFECTIVE DOSE OR DOSE RANGE: Density damaged neurons Cingulate cortex,[1]; [3],0.2 mg/kg
same,EFFECTIVE DOSE OR DOSE RANGE: Density damaged neurons Hippocampus (CA3),[1]; [3],0.8 mg/kg
same,PRESENCE OF A SIGNIFICANT PEPTIDE EFFECT: Density Intact neurons Cingulate cortex,[1]; [3],Yes (p < 0.05)^3
same,PRESENCE OF A SIGNIFICANT PEPTIDE EFFECT: Density Intact neurons Hippocampus (CA3),[1]; [3],YES (P < 0.05)
same,PRESENCE OF A SIGNIFICANT PEPTIDE EFFECT: Density damaged neurons Cingulate cortex,[1]; [3],"YES (p < 0.01,"
same,PRESENCE OF A SIGNIFICANT PEPTIDE EFFECT: Density damaged neurons Hippocampus (CA3),[1]; [3],YES (p < 0.05)^3
same,minimum effective dose for neuroprotection in cingulate cortex,"[1]; daily s.c., day 28",0.2 mg/kg
same,minimum effective dose for neuroprotection in hippocampus,"[1]; daily s.c., day 28",0.8 mg/kg
same,β-amyloid burden in the cingulate cortex,"[1]; daily s.c., day 28, large variability among animals","Neither the lesion, nor the peptide had significant effects; also recorded: did not reach significance"
same,minimum effective dose for neuroprotection,[1]; subcutaneous administration,0.2 mg/kg
same,"minimum effective dose, social recognition memory deficit",[1]; subcutaneous administration,0.8 mg/kg
same,spatial learning in Morris Water Maze (escape latency),adult male Wistar rats,learned significantly faster than vehicle treated ones
